Assays:
liver = test: Histology of the liver in the in vivo reversible hepatic injury model; set-up: species or system rat
Description: The instant invention also provides for an in vivo reversible hepatic injury model animal model, preferably a rodent model, most preferably a rat model. The animal can be dosed with any injurious bile acid or analogs thereof Suitable injurious bile acids include conjugates of chenodeoxycholic acid and lithocholic acid. A particularly suitable injurious bile acid analog is taurochenodeoxycholic acid. The injurious bile acid or analog can be administered by any suitable means, such as injection, oral or rectal administration. The injurious bile acid or analog thereof can be conveniently administered intravenously, particularly intravenous administration in the tail vein. The time of administration should be for less than 10 minutes, preferably approximately 1 to 2 minutes.
These histological findings are similar to those reported in a recently described rat model of continuous jugular vein infusion of TCDC at a rate of 0.4 to 0.6 μmol/min/100 gram over 60 minutes^31. […] However, the model of the instant invention produced similar results at half the TCDC dosages of the continuous TCDC infusion model, and allows for rapid, convenient infusion of TCDC.
Based on these biochemical and histological findings, a suitable time point for the embodiment of the instant invention using TCDC as the toxic bile acid was the 4 hour, 10 μmol/100 gram weight dose.

hepatic mitochondria = test: Lipid-conjugated dienes of hepatic mitochondria (lipid peroxidation); assay type: in vivo, male Sprague-Dawley rats
Description: Hepatic Mitochondria Isolation
Mitochondria were isolated from 10 grams of fresh liver from individual rats by a modification of a previously described method^27. Briefly, the liver was gently homogenized in a loose-fitting Potter-Elvehjm homogenizer in buffer containing 225 mM mannitol, 70 mM sucrose, 3 mM KH2 PO4, 2mM EDTA, 0.1% BSA, 5 mM MgCl2 (pH 7.0), filtered through cheesecloth and centrifuged at 400g×10 minutes. The supernatant was centrifuged at 10,000g for 10 minutes. The supernatant was aspirated and the pellet resuspended and centrifuged at 10,000g for 10 minutes. The resulting mitochondrial pellet was resuspended in 15 ml of buffer, divided into three tubes and added to digitonin (Sigma Chemical Company, St Louis, Mo., 0.29 mg for each gram of original liver) on wet ice×20 minutes, in order to minimize any contamination by lysosomes^28. The resulting mitochondrial preparation was washed two times in the original buffer and centrifuged at 10,000g for 10 minutes. Samples of the pellet were taken for enzyme marker analysis. Two more washes were then performed using a buffer containing 50 mM MOPS/100 mM KCI, yielding the final mitochondrial pellet.
Fresh mitochondria were analyzed for lipid peroxidation as an index of oxidant damage by the lipid-conjugated diene method of Recknagel and Ghoshal^35 with the modification of Bacon et al^36. Briefly, lipids were extracted from mitochondria pellets with chloroform and methanol (2:1, vol/vol), and the lipid in chloroform was dried under a stream of oxygen-free nitrogen^27. The dried lipid was redissolved in 1.5 ml of spectrophotometric grade cyclohexane. Absorbance from 220 to 275 nm was recorded against a cyclohexane blank on a Lambda 2 UV/is Spectrometer (Perkin-Elmer Corp., Norwalk, Conn.). Lipid concentration was approximately 0.5 mg/mi of cyclohexane. After the UV measurements, a 250 μl aliquot from each sample was analyzed for total lipid content by the method of Chiang et al.^37, and absorbance measurements were normalized to a denominator of 1.0 mg lipid per ml of cyclohexane. Lipid peroxidation was estimated by calculating the difference in absorption at 233 nm (the peak absorbance for conjugated dienes) between each rat and the mean of the values from control rats.
Because serum AST and ALT concentrations peaked at 4 hours, further evaluation of liver injury was performed at that time point Total concentrations (conjugated+free bile acids) of individual bile acids were measured in serum obtained at 4 hours by gas chromatography-mass spectroscopy (GC-MS), as previously described^30. Briefly, after serum samples were extracted with the addition of the internal standard 7-alpha, 12-alpha, dihydroxy-5 beta cholanic acid, trimethylsilyl esterification was performed. Individual bile acids were then quantified by GC or GC-MS using a Hewlett-Packard 5790 flame ionization detector equipped with a 30 meter DB-1 capillary column with internal diameter of 0.25 mm and a film thickness of 0.25 micrometers (J & W Scientific, Folsom, Calif.). For GC-MS measurements, a Hewlett-Packard 5970-A mass selective detector operating in selective ion monitoring mode was used. Results were expressed as μmol/L for each individual bile acid.
Rats were divided into two treatment groups. One group was pretreated with parenteral Vitamin E (all-rac-alpha tocopherol, Ephynal, Hoffmann-LaRoche,Nutley, N.J.). The other group was not pretreated. […]

TCDC hepatic toxicity = assay type: in vivo, male Sprague-Dawley rats; conditions: rat, in vivo
Description: Young adult male Sprague-Dawley rats (150-180 gram weight) purchased from Sasco, Inc. (Omaha, Nebr.) were fed Purina Lab Chow (Ralston Purina Co., Chicago, Ill.) ad libitum for 2-3 weeks and housed in polyethylene cages with stainless steel tops on a 12-hour light-dark cycle. All rats received humane care in compliance with the guidelines of the Animal Use in Research Committee of the University of Colorado Health Sciences Center. […] TCDC is a conjugate of the bile acid most implicated in cholestatic liver injury9,11,12. TCDC was solubilized in 5% dextrose, 10% BSA, and 0.45% normal saline. TCDC was administered while rats were under light methoxyflurane anesthesia as an intravenous bolus of the desired dose in 1 to 2 minutes through the tail vein. TCDC dosing was performed between 7 and 9 am. […] Rats were divided into two treatment groups. One group was pretreated with parenteral Vitamin E (all-rac-alpha tocopherol, […], Hoffmann-LaRoche,Nutley, N.J.). The other group was not pretreated. These rats then received either vehicle or TCDC (10 μmol/[…]) by tail vein injection (as described in Example 1). […] All i.p. injections were administered under light methoxyflurane anesthesia. Following the vitamin E or saline injections, rats were randomly assigned to receive a tail vein bolus injection of either TCDC or vehicle. Rats were sacrificed four hours later and serum was analyzed for AST, ALT, total bilirubin and alkaline phosphatase. […] The serum alpha tocopherol:total lipids ratio (mg/gm) was calculated as an additional index of vitamin E status^41.

bile flow = conditions: continuous jugular vein TCDC infusion 0.4 to 0.6 μmol/min/100 gram over 60 minutes; cited from earlier work

Structure (SMILES): C[C@H](CCC(=O)NCCS(=O)(=O)O)[C@H]1CC[C@H]2[C@@H]3[C@H](O)C[C@@H]4C[C@H](O)CC[C@]4(C)[C@H]3CC[C@]12C [TCDC, taurochenodeoxycholic acid]
- Histology of the liver (liver; 4 h after TCDC 10 μmol/100 gram weight): mild hepatocyte swelling, variable necrosis of individual hepatocytes, mild portal tract infiltration with lymphocytes without bile duct injury, and accumulation of smooth eosinophilic globules
- Reversibility of hepatocyte injury (liver; TCDC 10 μmol/100 gram weight, 24 h): much reduced by 24 hours after injection
- Predominant histological findings of the in vivo model (liver; rat model, TCDC): Hepatocyte swelling and a mild degree of cellular necrosis
- Hepatic mitochondrial lipid-conjugated dienes, change versus vehicle (hepatic mitochondria; 4 h after TCDC 10 μmol/100 gram): significant elevations
- Lipid-conjugated dienes (hepatic mitochondria; Control/TCDC, n = 13, 4 h): 0.24 ± 0.02 delta abs. 233 nm/mg lipid
- ALT (TCDC hepatic toxicity): 1111 ± 213 IU/L
- AST (TCDC hepatic toxicity): 2472 ± 505 IU/L
- Bilirubin (TCDC hepatic toxicity): 0.4 ± 0.1 mg/dL
- Bile flow and hepatic bile secretion (bile flow): marked reduction in bile flow and of hepatic bile secretion
